In one experiment the target is androgen receptor (Homo sapiens, UniProt P10275). Nature of the experiment: Assay for binding affinity to androgen receptor ([3H]methyltrienolone radioligand, cell cytosol). The settings on record: binding to the androgen receptor, 1 nM [3H]methyltrienolone, 24 hr at 4° C. How it is done:
Fractions of cell cytosol (106 cell/point) were incubated for 24 hr at 4° C. with 1 nM [^3H]methyltrienolone in the absence or presence of the test compound in a buffer containing 25 mM Hepes-Tris (pH 7.4), 1 mM EDTA, 10 mM Na2MoO4, 2 mM DTT, 5 µM triamcinolone acetonide, and 10% glycerol. Nonspecific binding was determined in the presence of 1 μM testosterone. Following incubation, the samples were filtered rapidly under vacuum through glass fiber filters (GF/B, Packard) presoaked with 0.3% PEI and rinsed several times with ice-cold 50 mM Tris-HCl using a 96-sample cell harvester (Unifilter, Packard). The filters were dried then counted for radioactivity in a scintillation counter (Topcount, Packard) using a scintillation cocktail (Microscint 0, Packard). The results are expressed as a percent inhibition of the control radioligand specific binding. The standard reference compound is testosterone, which is tested in each experiment at several concentrations to obtain a competition curve from which its IC50 is calculated.

Experiment [1] deals with T-Rex 293 cell line SC3 cells having increased expression of androgen receptor protein. Put plainly: Cellular growth inhibition, T-Rex 293 SC3 cells with increased androgen receptor expression (doxycycline), CellTiter-Glo. In kind it is cell-based. The settings on record: T-Rex 293 SC3 cells with increased androgen receptor expression (exposed to 10 ng/mL doxycycline), 72 hours, CellTiter-Glo; read-out: GI50. The method in brief:
(§1)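 SC3, a T-Rex 293 clone with doxycycline-inducible wild-type androgen receptor, was seeded in phenol red-free DMEM with 10% charcoal-dextran FBS, with or without 10 ng/mL doxycycline. Compound added at 24 h (0.5% DMSO) for 72 h at 37° C. CellTiter-Glo 2.0 luminescence; GI50 from four-parameter fit.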

The test system of another experiment is VCaP cells. Put plainly: Cellular growth inhibition assay for VCaP cells, CellTiter-Glo. In kind it is cell-based, human. Conditions: VCaP cells, 72 hours, CellTiter-Glo, read-out: GI50. The method in brief: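 GI50 values come from four-parameter curve fits of luminescence data normalized to a zero baseline. Compound, in medium with 0.5% DMSO, was added one day after plating and left for 72 h before CellTiter-Glo 2.0 addition.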
Background: ATP-based viability assays read luminescence as a measure of living cells.

In experiment [2] the test system is T-Rex 293 cell line SC3 cells lacking increased expression of androgen receptor protein. Put plainly: Cellular growth inhibition, T-Rex 293 SC3 cells lacking increased androgen receptor expression (no doxycycline), CellTiter-Glo. Type of experiment: cell-based. Conditions: T-Rex 293 SC3 cells lacking increased androgen receptor expression (not exposed to doxycycline), 72 hours, CellTiter-Glo; read-out: GI50. In a few lines: as §1

A further experiment has as its target progesterone receptor (Homo sapiens, UniProt P06401). Put plainly: PR Human Progesterone NHR Binding (Agonist Radioligand) Assay, [3H]progesterone, T47D cytosol. The settings on record: 0.5 nM [3H]progesterone, T47D cytosolic fractions, 1 hour at 4° C., legend words it as Kd. How it is done:
Compounds were tested using the PR Human Progesterone NHR Binding (Agonist Radioligand) Assay, Cerep at Eurofins Discovery using a modified version of the protocol from Sarup et al. (Cancer Res 1988; 48:5071-5078). Briefly, cytosolic fractions of T47D cells were incubated with 0.5 nM [^3H]progesterone for 1 hour at 4° C. in the absence or presence of the test compound. Nonspecific binding was determined in the presence of 1 μM promegestone. Reactions were subjected to scintillation counting. Results are expressed as a percent inhibition of the control radioligand specific binding.

The target of another experiment is BRD4-BD1 (Homo sapiens (Human), UniProt O60885). Put plainly: bromoKdELECT assay for binding affinity to BRD4-BD1. Conditions: 11-point 3-fold dilution. On the procedure: (§2) Compounds were tested using a bromoKdELECT assay. T7 phage strains displaying bromodomains were grown in parallel in 24-well blocks in an E. coli host derived from the BL21 strain. E. coli were grown to log-phase and infected with T7 phage from a frozen stock (multiplicity of infection=0.4) and incubated with shaking at 32° C. until lysis (90-150 minutes). The lysates were centrifuged (5,000×g) and filtered (0.2 μm) to remove cell debris. Streptavidin-coated magnetic beads were treated with biotinylated small molecule or acetylated peptide ligands for 30 minutes at room temperature to generate affinity resins for bromodomain assays. The liganded beads were blocked with excess biotin and washed with blocking buffer (SeaBlock (Pierce), 1% BSA, 0.05% Tween 20, 1 mM DTT) to remove unbound ligand and to reduce nonspecific phage binding. Binding reactions were assembled by combining bromodomains, liganded affinity beads, and test compounds in 1× binding buffer (17% SeaBlock, 0.33×PBS, 0.04% Tween 20, 0.02% BSA, 0.004% Sodium azide, 7.4 mM DTT). Test compounds were prepared as 1000× stocks in 100% DMSO. Kds were determined using an 11-point 3-fold compound dilution series with one DMSO control point. All compounds for Kd measurements are distributed by acoustic transfer (non-contact dispensing) in 100% DMSO. The compounds were then diluted directly into the assays such that the final concentration of DMSO was 0.09%. All reactions performed in polypropylene 384-well plates. Each was a final volume of 0.02 ml. The assay plates were incubated at room temperature with shaking for 1 hour and the affinity beads were washed with wash buffer (1×PBS, 0.05% Tween 20). The beads were then resuspended in elution buffer (1×PBS, 0.05% Tween 20, 2 μM non-biotinylated affinity ligand) and incubated at room temperature with shaking for 30 minutes. The bromodomain concentration in the eluates was measured by qPCR.

Experiment [3] addresses progesterone receptor ligand binding domain (LBD) (Homo sapiens (Human), UniProt P06401). Put plainly: FP assay for binding affinity to progesterone receptor (PolarScreen Progesterone Receptor Competitor Assay). Conditions: GST-tagged PR LBD, Fluormone tracer, fluorescence polarization, 2 hours at room temperature. On the procedure: Compounds were tested using the PolarScreen™ Progesterone Receptor Competitor Assay Kit (Life Technologies Cat #A15905 or a15906), as per the manufacturer's instructions. Briefly, GST-tagged PR LBD, Fluormone tracer, and compound were mixed and incubated for 2 hours at room temperature in the dark. Following incubation, the plates were spun at 3000×g for 30 seconds, then sealed with an optical adhesive cover, and fluorescence polarization was measured using appropriate excitation and emission filters with an EnVision Plate Reader (Perkin Elmer). Compound concentration vs. mP value were plotted in Prism (GraphPad). A four-parameter non-linear regression curve fit was applied to dose-response data to determine the half-maximal inhibitory concentration (IC50) for each test compound.
(Fluorescence polarisation rises when a labelled molecule tumbles more slowly, as on binding a larger partner.)

For another experiment, the target named is BRD4-BD2 (Homo sapiens (Human), UniProt O60885). Nature of the experiment: bromoKdELECT assay for binding affinity to BRD4-BD2. Conditions: 11-point 3-fold dilution. How it is done: as §2
Another experiment concerns T47D cells. Put plainly: Cellular growth inhibition assay for T47D cells, CellTiter-Glo. In kind it is cell-based, human. Conditions: 72 hours treatment, CellTiter-Glo 2.0. In a few lines: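 Growth inhibition as GI50, fitted with four parameters to CellTiter-Glo luminescence after 72 h of compound exposure (0.5% DMSO). Cells were T47D, grown in insulin-supplemented (0.2 units/mL) DMEM with 10% FBS and treated one day post-seeding.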

Read-outs that look alike come from different tables or passages of the source.

Chain of androgen receptor (P10275 whole entry, looked up): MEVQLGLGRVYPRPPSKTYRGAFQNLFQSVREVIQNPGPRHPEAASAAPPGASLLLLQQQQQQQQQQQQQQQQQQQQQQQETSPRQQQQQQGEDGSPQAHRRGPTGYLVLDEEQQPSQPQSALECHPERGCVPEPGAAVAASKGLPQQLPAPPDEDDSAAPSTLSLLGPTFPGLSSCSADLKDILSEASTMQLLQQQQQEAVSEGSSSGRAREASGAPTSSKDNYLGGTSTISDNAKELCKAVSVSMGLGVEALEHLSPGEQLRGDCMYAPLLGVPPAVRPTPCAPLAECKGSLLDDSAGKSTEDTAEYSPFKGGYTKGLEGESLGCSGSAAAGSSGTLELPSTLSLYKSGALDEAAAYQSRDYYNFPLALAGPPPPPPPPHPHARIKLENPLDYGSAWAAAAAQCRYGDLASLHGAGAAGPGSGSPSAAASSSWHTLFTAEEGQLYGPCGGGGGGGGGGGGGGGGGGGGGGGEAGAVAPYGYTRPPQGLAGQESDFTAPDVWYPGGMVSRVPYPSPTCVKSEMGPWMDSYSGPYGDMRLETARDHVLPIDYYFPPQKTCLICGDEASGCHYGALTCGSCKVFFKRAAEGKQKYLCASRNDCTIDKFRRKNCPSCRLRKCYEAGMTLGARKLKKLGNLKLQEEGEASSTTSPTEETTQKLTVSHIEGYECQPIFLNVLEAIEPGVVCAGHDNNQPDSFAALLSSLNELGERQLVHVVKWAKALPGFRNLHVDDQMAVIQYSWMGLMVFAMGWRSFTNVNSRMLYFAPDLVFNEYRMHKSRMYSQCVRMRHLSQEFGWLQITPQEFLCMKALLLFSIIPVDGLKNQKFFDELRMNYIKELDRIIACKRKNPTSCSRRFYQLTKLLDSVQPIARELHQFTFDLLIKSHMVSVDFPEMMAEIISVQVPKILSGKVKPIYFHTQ
Chain of progesterone receptor (P06401 whole entry, looked up): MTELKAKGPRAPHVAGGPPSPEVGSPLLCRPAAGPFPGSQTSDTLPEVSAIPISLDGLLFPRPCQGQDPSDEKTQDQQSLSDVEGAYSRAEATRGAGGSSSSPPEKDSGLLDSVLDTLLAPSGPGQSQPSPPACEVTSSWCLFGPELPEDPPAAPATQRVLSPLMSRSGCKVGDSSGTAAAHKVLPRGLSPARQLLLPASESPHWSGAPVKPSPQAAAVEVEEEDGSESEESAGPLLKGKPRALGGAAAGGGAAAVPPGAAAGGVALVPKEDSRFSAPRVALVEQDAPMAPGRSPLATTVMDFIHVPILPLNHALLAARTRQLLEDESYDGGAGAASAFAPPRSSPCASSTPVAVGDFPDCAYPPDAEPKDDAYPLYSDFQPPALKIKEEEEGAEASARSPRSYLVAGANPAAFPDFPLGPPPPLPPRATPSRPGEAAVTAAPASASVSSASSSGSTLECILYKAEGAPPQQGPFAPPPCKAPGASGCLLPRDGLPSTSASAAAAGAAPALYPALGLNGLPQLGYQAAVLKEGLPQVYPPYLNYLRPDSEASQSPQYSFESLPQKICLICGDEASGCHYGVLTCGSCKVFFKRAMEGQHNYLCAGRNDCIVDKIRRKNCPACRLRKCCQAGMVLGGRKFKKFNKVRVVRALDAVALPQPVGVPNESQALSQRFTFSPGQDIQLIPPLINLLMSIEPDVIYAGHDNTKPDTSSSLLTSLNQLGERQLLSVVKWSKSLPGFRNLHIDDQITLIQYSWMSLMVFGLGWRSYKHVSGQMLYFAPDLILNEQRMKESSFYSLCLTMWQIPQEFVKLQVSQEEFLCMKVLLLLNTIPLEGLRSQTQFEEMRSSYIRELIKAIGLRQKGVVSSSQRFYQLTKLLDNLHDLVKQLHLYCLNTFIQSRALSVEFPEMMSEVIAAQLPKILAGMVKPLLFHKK
Chain of progesterone receptor ligand binding domain (LBD) (P06401 679-913): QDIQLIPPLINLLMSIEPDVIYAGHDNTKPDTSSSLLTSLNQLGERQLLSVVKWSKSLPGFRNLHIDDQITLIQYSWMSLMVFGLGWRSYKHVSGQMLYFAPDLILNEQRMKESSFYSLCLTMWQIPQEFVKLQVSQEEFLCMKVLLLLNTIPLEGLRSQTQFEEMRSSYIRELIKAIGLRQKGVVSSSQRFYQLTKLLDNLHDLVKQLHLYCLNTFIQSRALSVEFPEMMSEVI

In general, Kd refers to a measure of binding affinity in units of concentration. Read a low Kd as a tighter complex. A word on the GI50: it is the concentration giving 50% growth inhibition. For `CCS(=O)(=O)Nc1ccc(Oc2cccc(OCCOC3CCN(c4ccc(C(=O)N[C@H]5CC[C@H](Oc6ccc(C#N)c(Cl)c6)CC5)cc4)CC3)c2)c(-c2cn(C)c(=O)c3[nH]ccc23)c1` [I-6, N-[4-(3-chloro-4-cyano-phenoxy)cyclohexyl]-4-[4-[2-[3-[4-(ethylsulfonylamino)-2-(6-methyl-7-oxo-1H-pyrrolo[2,3-c]pyridin-4-yl)phenoxy]phenoxy]ethoxy]-1-piperidyl]benzamide], on androgen receptor, the Kd is 0.5 to 2.5 µM. Also, the GI50 (in experiment [1]; with VCaP cells (Homo sapiens); in experiment [2]) was below 0.5 µM each time.

At androgen receptor, `CCS(=O)(=O)Nc1ccc(Oc2cccc(OCCOC3CCN(c4ccc(C(=O)N[C@H]5CC[C@H](Oc6ccc(C#N)c(Cl)c6)CC5)cn4)CC3)c2)c(-c2cn(C)c(=O)c3[nH]ccc23)c1` [I-7, N-[4-(3-chloro-4-cyano-phenoxy)cyclohexyl]-6-[4-[2-[3-[4-(ethylsulfonylamino)-2-(6-methyl-7-oxo-1H-pyrrolo[2,3-c]pyridin-4-yl)phenoxy]phenoxy]ethoxy]-1-piperidyl]pyridine-3-carboxamide] came in with a Kd of 0.5 to 2.5 µM. In addition, the GI50 (in [1]; with VCaP cells (Homo sapiens); in experiment [2]) was below 0.5 µM throughout.

In turn, `CCS(=O)(=O)Nc1ccc(Oc2cccc(OCCOC3CCN(c4cnc(C(=O)N[C@H]5CC[C@H](Oc6ccc(C#N)c(Cl)c6)CC5)cn4)CC3)c2)c(-c2cn(C)c(=O)c3[nH]ccc23)c1` [I-8, N-[4-(3-chloro-4-cyano-phenoxy)cyclohexyl]-5-[4-[2-[3-[4-(ethylsulfonylamino)-2-(6-methyl-7-oxo-1H-pyrrolo[2,3-c]pyridin-4-yl)phenoxy]phenoxy]ethoxy]-1-piperidyl]pyrazine-2-carboxamide] had a Kd at androgen receptor of 0.5 to 2.5 µM. Also, the GI50 (in experiment [1]; with VCaP cells (Homo sapiens); in experiment [2]) was below 0.5 µM in each case.

Compound `CCS(=O)(=O)Nc1ccc(Oc2cccc(OCCOC3CCN(c4ccc(C(=O)N[C@H]5CC[C@H](Oc6ccc(C#N)c(Cl)c6)CC5)nc4)CC3)c2)c(-c2cn(C)c(=O)c3[nH]ccc23)c1` [I-9, N-[4-(3-chloro-4-cyano-phenoxy)cyclohexyl]-5-[4-[2-[3-[4-(ethylsulfonylamino)-2-(6-methyl-7-oxo-1H-pyrrolo[2,3-c]pyridin-4-yl)phenoxy]phenoxy]ethoxy]-1-piperidyl]pyridine-2-carboxamide] returned a Kd at androgen receptor of 0.5 to 2.5 µM. The GI50 (in experiment [1]; in the experiment with VCaP cells (Homo sapiens); in experiment [2]) was below 0.5 µM throughout.

The compound `CCS(=O)(=O)Nc1ccc(Oc2cccc(OCCOC3CCN(c4cnc(C(=O)N[C@H]5CC[C@H](Oc6ccc(C#N)c(Cl)c6)CC5)nc4)CC3)c2)c(-c2cn(C)c(=O)c3[nH]ccc23)c1` [I-10, N-[4-(3-chloro-4-cyano-phenoxy)cyclohexyl]-5-[4-[2-[3-[4-(ethylsulfonylamino)-2-(6-methyl-7-oxo-1H-pyrrolo[2,3-c]pyridin-4-yl)phenoxy]phenoxy]ethoxy]-1-piperidyl]pyrimidine-2-carboxamide] had a Kd on androgen receptor of 0.05 to 0.5 µM. Further, the GI50 in experiment [1] was below 0.5 µM; in the experiment on VCaP cells (Homo sapiens), below 0.5 µM; in [2] it was above 3 µM.

Usually Ki stands for a dissociation constant, usually derived from enzyme kinetics or from competition with a known ligand. Consider `CCS(=O)(=O)Cc1ccc(Oc2cccc(OCCOC3CCN(c4cnc(C(=O)N[C@H]5CC[C@H](Oc6ccc(C#N)c(Cl)c6)CC5)cn4)CC3)c2F)c(-c2cn(C)c(=O)c3[nH]ccc23)c1` [I-28], for which the Kd at androgen receptor lay in the range of 0.05 to 0.5 µM. This compound yielded a Ki at progesterone receptor of 0.5 to 2.5 µM. The GI50 (in [1]; with VCaP cells (Homo sapiens); in experiment [2]) was below 0.5 µM each time.

In general, IC50 refers to the concentration that inhibits the measured activity by half. A higher IC50 goes with lower potency. On to `Cn1cc(-c2cc(S(=O)(=O)CCCCOC3CCN(c4ccc(C(=O)NC5CCC(Oc6ccc(C#N)c(Cl)c6)CC5)nn4)CC3)ccc2Oc2ccc(F)cc2F)c2cc[nH]c2c1=O` (centres unmarked) [I-92, N-[4-(3-chloro-4-cyano-phenoxy)cyclohexyl]-6-[4-[4-[4-(2,4-difluorophenoxy)-3-(6-methyl-7-oxo-1H-pyrrolo[2,3-c]pyridin-4-yl)phenyl]sulfonylbutoxy]-1-piperidyl]pyridazine-3-carboxamide], for which the dissociation constant Kd on BRD4-BD1 and on BRD4-BD2 was above 2.5 µM each time. Moreover, the GI50 is below 0.5 µM in [1], above 3 µM with VCaP cells (Homo sapiens) and above 3 µM in [2]. Besides, in experiment [3], the IC50 fell in the range of 0.05 to 0.5 µM.

`Cn1cc(-c2cc(C(C)(C)O)ccc2Oc2ccc(C3CN(c4ccc(C(=O)N[C@H]5CC[C@H](Oc6ccc(C#N)c(Cl)c6)CC5)nn4)C3)cc2)c2cc[nH]c2c1=O` [I-104]: the GI50 with T47D cells is below 0.5 µM; in [1], below 0.5 µM; in the experiment with VCaP cells it was below 0.5 µM; in experiment [2] it was 0.5 to 1.5 µM. This compound had a Kd on androgen receptor below 0.05 µM.

Regarding `Cn1cc(-c2cc(C(C)(C)O)ccc2Oc2ccc(CCC3CCN(c4cnc(C(=O)N[C@H]5CC[C@H](Oc6ccc(C#N)c(Cl)c6)CC5)cn4)CC3)cc2)c2cc[nH]c2c1=O` [I-119], the GI50 (with T47D cells; in experiment [1]; in the experiment on VCaP cells; in [2]) was below 0.5 µM in each case. At androgen receptor, the Kd lay within 0.5 to 2.5 µM.
